Reference: US6525001B1, “Substituted pyrimidine and pyridine herbicides” (Mid-American Commercialization Corporation, priority 1997, dated 2003)

How the values were obtained:
Format in all cases: in vivo
rice (Oryza sativa) = test: Test B flood test
Summary of the method: (§1)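 Plants were grown to the 2-leaf stage before treatment with test chemical, then held in a greenhouse for twelve to sixteen days. Injury was visually rated against untreated controls on a 0–10 scale, where 0 is no effect and 10 is complete control.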

[1] = tested on: duck salad (Heteranthera limosa); test: Test B flood test
Summary of the method: as §1

[2] = tested on: smallflower flatsedge (Cyperus difformis); test: Test B flood test
Summary of the method: as §1

[3] = tested on: bamyardgrass (Echinochloa crus-galli); test: Test B flood test
Summary of the method: as §1

[4] = tested on: crabgrass (Digitaria sanguinalis); test: Test B pre-/postemergence; set-up: key: 0 is no effect; 10 is complete control; conditions: for Crabgrass plant response rating: Preemergence
Summary of the method: (§2)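 Seeds were planted and sprayed preemergence, while plants at 2 to 18 cm (1- to 4-leaf stage) were sprayed postemergence at the same time, with test chemical in a non-phytotoxic solvent mixture containing surfactant. After twelve to sixteen days in a greenhouse, injury was rated visually against untreated controls on a 0–10 scale.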

[5] = tested on: bedstraw (Galium aparine); test: Test B pre-/postemergence; set-up: key: 0 is no effect; 10 is complete control; conditions: for Bedstraw plant response rating: Preemergence
Summary of the method: as §2

[6] = tested on: purple nutsedge (Cyperus rotundus); test: Test B pre-/postemergence; set-up: key: 0 is no effect; 10 is complete control
Summary of the method: as §2

[7] = tested on: sugar beet (Beta vulgaris); test: Test B pre-/postemergence; set-up: key: 0 is no effect; 10 is complete control
Summary of the method: as §2

rape (Brassica napus) = test: Test B pre-/postemergence; set-up: key: 0 is no effect; 10 is complete control
Summary of the method: as §2

[8] = tested on: velvetleaf (Abutilon theophrasti); test: Test B pre-/postemergence; set-up: key: 0 is no effect; 10 is complete control
Summary of the method: as §2

[9] = tested on: wheat (Triticum aestivum); test: Test B pre-/postemergence; set-up: key: 0 is no effect; 10 is complete control
Summary of the method: as §2

soybean (Glycine max) = test: Test B pre-/postemergence; set-up: key: 0 is no effect; 10 is complete control
Summary of the method: as §2

corn (Zea mays) = test: Test B pre-/postemergence; set-up: key: 0 is no effect; 10 is complete control; conditions: for Corn plant response rating: Preemergence
Summary of the method: as §2

wild oat (Avena fatua) = test: Test B pre-/postemergence; set-up: key: 0 is no effect; 10 is complete control
Summary of the method: as §2

[10] = tested on: giant foxtail (Setaria faberii); test: Test B pre-/postemergence; set-up: key: 0 is no effect; 10 is complete control
Summary of the method: as §2

[11] = Rate 62 g/ha, Postemergence (flood test)
[12] = Rate 125 g/ha, Postemergence section (flood test species)
[13] = Rate 250 g/ha, Postemergence (flood test species)
[14] = Rate 125 g/ha, Postemergence, flood test
[15] = Rate 250 g/ha, Postemergence (so in the source)

CCc1cnc(-n2ccc(C(F)(F)F)n2)nc1Cc1cccc(C(F)(F)F)c1 [Compound 46]
Plant response rating, Rice (rice (Oryza sativa); [11]): 1 | Rice plant response rating (rice (Oryza sativa); [12]): 2 | Plant response rating, Rice (rice (Oryza sativa); [13]): 4 | Plant response rating, Ducksalad [1, 11]: 1 | Plant response rating, Ducksalad [1, 14]: 1 | Plant response rating, Ducksalad [1, 13]: 4 | Plant response rating, S. Flatsedge [2, 11]: 4 | S. Flatsedge plant response rating [2, 12]: 5 | Plant response rating, S. Flatsedge [2, 13]: 7 | Plant response rating, Barnyardgrass [3, 11]: 2 | Plant response rating, Barnyardgrass [3, 14]: 3 | Plant response rating, Barnyardgrass [3, 13]: 4 | Plant response rating, Crabgrass ([4]; Rate 62 g/ha, Postemergence): 6 | Crabgrass plant response rating ([4]; Rate 62 g/ha): 9 | Plant response rating, Crabgrass ([4]; Rate 125 g/ha, Postemergence): 6 | Crabgrass plant response rating ([4]; Rate 125 g/ha): 9 | Plant response rating, Crabgrass ([4]; Rate 250 g/ha, Postemergence): 8 | Plant response rating, Crabgrass [4, 15]: 10 | Plant response rating, Bedstraw ([5]; Rate 62 g/ha, Postemergence): 8 | Bedstraw plant response rating ([5]; Rate 62 g/ha): 8 | Plant response rating, Bedstraw ([5]; Rate 125 g/ha, Postemergence): 9 | Bedstraw plant response rating ([5]; Rate 125 g/ha): 9 | Plant response rating, Bedstraw ([5]; Rate 250 g/ha, Postemergence): 10 | Plant response rating, Bedstraw [5, 15]: 10 | Plant response rating, Nutsedge ([6]; Rate 62 g/ha, Postemergence): 2 | Nutsedge plant response rating ([6]; Rate 125 g/ha, Preemergence): 0 | Plant response rating, Nutsedge [6, 15]: 0 | Plant response rating, Sugarbeets ([7]; Rate 62 g/ha, Postemergence): 10 | Sugarbeets plant response rating ([7]; Rate 62 g/ha, Preemergence): 10 | Sugarbeets plant response rating ([7]; Rate 125 g/ha, Postemergence): 10 | Plant response rating, Sugarbeets ([7]; Rate 125 g/ha, Preemergence): 10 | Plant response rating, Sugarbeets ([7]; Rate 250 g/ha, Postemergence): 10 | Plant response rating, Sugarbeets [7, 15]: 10 | Plant response rating, Rape (rape (Brassica napus); Rate 62 g/ha, Postemergence): 9 | Rape plant response rating (rape (Brassica napus); Rate 62 g/ha, Preemergence): 9 | Rape plant response rating (rape (Brassica napus); Rate 125 g/ha, Postemergence): 9 | Rape plant response rating (rape (Brassica napus); Rate 125 g/ha, Preemergence): 9 | Plant response rating, Rape (rape (Brassica napus); Rate 250 g/ha, Postemergence): 9 | Plant response rating, Rape (rape (Brassica napus); [15]): 10 | Plant response rating, Velvetleaf ([8]; Rate 62 g/ha, Postemergence): 9 | Velvetleaf plant response rating ([8]; Rate 62 g/ha, Preemergence): 10 | Velvetleaf plant response rating ([8]; Rate 125 g/ha, Postemergence): 9 | Plant response rating, Velvetleaf ([8]; Rate 125 g/ha, Preemergence): 10 | Plant response rating, Velvetleaf ([8]; Rate 250 g/ha, Postemergence): 9 | Plant response rating, Velvetleaf [8, 15]: 10 | Wheat plant response rating ([9]; Rate 62 g/ha, Postemergence): 3 | Wheat plant response rating ([9]; Rate 62 g/ha, Preemergence): 1 | Wheat plant response rating ([9]; Rate 125 g/ha, Postemergence): 3 | Plant response rating, Wheat ([9]; Rate 125 g/ha, Preemergence): 3 | Plant response rating, Wheat ([9]; Rate 250 g/ha, Postemergence): 4 | Plant response rating, Wheat [9, 15]: 5 | Plant response rating, Soybean (soybean (Glycine max); Rate 62 g/ha, Postemergence): 8 | Soybean plant response rating (soybean (Glycine max); Rate 62 g/ha, Preemergence): 1 | Soybean plant response rating (soybean (Glycine max); Rate 125 g/ha, Postemergence): 8 | Plant response rating, Soybean (soybean (Glycine max); Rate 125 g/ha, Preemergence): 3 | Plant response rating, Soybean (soybean (Glycine max); Rate 250 g/ha, Postemergence): 9 | Plant response rating, Soybean (soybean (Glycine max); [15]): 7 | Plant response rating, Corn (corn (Zea mays); Rate 62 g/ha, Postemergence): 2 | Corn plant response rating (corn (Zea mays); Rate 62 g/ha): 0 | Plant response rating, Corn (corn (Zea mays); Rate 125 g/ha, Postemergence): 2 | Corn plant response rating (corn (Zea mays); Rate 125 g/ha): 1 | Plant response rating, Corn (corn (Zea mays); Rate 250 g/ha, Postemergence): 3 | Plant response rating, Corn (corn (Zea mays); [15]): 3 | Wild oats plant response rating (wild oat (Avena fatua); Rate 62 g/ha, Postemergence): 3 | Wild oats plant response rating (wild oat (Avena fatua); Rate 62 g/ha, Preemergence): 6 | Wild oats plant response rating (wild oat (Avena fatua); Rate 125 g/ha, Postemergence): 4 | Plant response rating, Wild oats (wild oat (Avena fatua); Rate 125 g/ha, Preemergence): 8 | Plant response rating, Wild oats (wild oat (Avena fatua); Rate 250 g/ha, Postemergence): 4 | Plant response rating, Wild oats (wild oat (Avena fatua); [15]): 9 | Plant response rating, Giant foxtail ([10]; Rate 62 g/ha, Postemergence): 3 | Giant foxtail plant response rating ([10]; Rate 62 g/ha, Preemergence): 9 | Giant foxtail plant response rating ([10]; Rate 125 g/ha, Postemergence): 4 | Giant foxtail plant response rating ([10]; Rate 125 g/ha, Preemergence): 9 | Plant response rating, Giant foxtail ([10]; Rate 250 g/ha, Postemergence): 7 | Plant response rating, Giant foxtail [10, 15]: 10
